Experimental data reported in US12090143B1, “4-chloro-N′-(2-(5-phenyl-1,3,4-oxadiazol-2-ylthio)acetoxy)benzimidamide as an antimicrobial compound” (KING FAISAL UNIVERSITY, priority 2023, dated 2024).

Experiments:
Format in all cases: cell-based
Escherichia coli = assay: Agar plate disc-diffusion, antibacterial, Escherichia coli; conditions: nutrient agar, 37° C., 48 hours, DMSO zone subtracted
Description: (§1) The agar plate disc-diffusion method was applied. […] The discs were then placed onto the surface of agar plates (nutrient agar for bacteria and Sabouraud's dextrose agar for fungi) seeded with the test organism. Each plate contained 15 mL of the agar medium, previously seeded with 0.2 mL of the broth culture of each organism pregrown for 18 hours. The plates were incubated at 37° C. for 48 hours, and 72 hours for fungi. The inhibition zones was measured in mm. Discs impregnated with DMSO were used as a control, and its inhibition zone was subtracted from the tested compound actual inhibition zone.

Bacillus cereus = assay: Agar plate disc-diffusion, antibacterial, Bacillus cereus; conditions: nutrient agar, 37° C., 48 hours, DMSO zone subtracted
Description: as §1

[1] = test system: Chrysosporium keratinophilum; assay: Agar plate disc-diffusion, antifungal, Chrysosporium keratinophilum; conditions: Sabouraud's dextrose agar, 37° C., 72 hours, DMSO zone subtracted
Description: as §1

Staphylococcus aureus = assay: Agar plate disc-diffusion, antibacterial, Staphylococcus aureus; conditions: nutrient agar, 37° C., 48 hours, DMSO zone subtracted
Description: as §1

Pseudomonas aeruginosa = assay: Agar plate disc-diffusion, antibacterial, Pseudomonas aeruginosa; conditions: nutrient agar, 37° C., 48 hours, DMSO zone subtracted
Description: as §1

Aspergillus flavus = assay: Agar plate disc-diffusion, antifungal, Aspergillus flavus; conditions: Sabouraud's dextrose agar, 37° C., 72 hours, DMSO zone subtracted
Description: as §1

[2] = B = concentration of comp. = 30,000 μL
[3] = C = concentration of comp. = 50,000 μL
[4] = A = concentration of comp. = 10,000 μL

## N/C(=N\OC(=O)CSc1nnc(-c2ccccc2)o1)c1ccc(Cl)cc1 [Compound 3, 4-chloro-N′-(2-(5-phenyl-1,3,4-oxadiazol-2-ylthio)acetoxy)benzimidamide]
Escherichia coli; A =
  inhibition zone, Escherichia coli, A: 28 mm
Escherichia coli; [2]
  inhibition zone, Escherichia coli, B: 36 mm
Escherichia coli; [3]
  inhibition zone, Escherichia coli, C: 53 mm
Bacillus cereus; [4]
  inhibition zone, Bacillus Cereus, A: 26 mm
Bacillus cereus; [2]
  inhibition zone, Bacillus Cereus, B: 29 mm
Bacillus cereus; [3]
  inhibition zone, Bacillus Cereus, C: 39 mm
[1]; [4]
  inhibition zone, Chrysosporium keratinophilum, A: 35 mm
[1]; [2]
  inhibition zone, Chrysosporium keratinophilum, B: 26 mm
[1]; [3]
  inhibition zone, Chrysosporium keratinophilum, C: 42 mm
Staphylococcus aureus; [4]
  inhibition zone, Staphylococcus aureus, A: 25 mm
Staphylococcus aureus; [2]
  inhibition zone, Staphylococcus aureus, B: 27 mm
Staphylococcus aureus; [3]
  inhibition zone, Staphylococcus aureus, C: 39 mm
Pseudomonas aeruginosa; A =
  inhibition zone, Pseudomonas aeruginosa, A: 20 mm
Pseudomonas aeruginosa; [2]
  inhibition zone, Pseudomonas aeruginosa, B: 26 mm
Pseudomonas aeruginosa; [3]
  inhibition zone, Pseudomonas aeruginosa, C: 40 mm
Aspergillus flavus; [4]
  inhibition zone, Aspergillus flavus, A: 23 mm
Aspergillus flavus; [2]
  inhibition zone, Aspergillus flavus, B: 27 mm
Aspergillus flavus; [3]
  inhibition zone, Aspergillus flavus, C: 39 mm
